Positions of bridges follow the written chain, without caps; N, C: chain ends. Residues, ends and D or L forms follow the SMILES beside them.

The subject of experiment [1] is male mice of the C57BL/6 strain. Briefly: In vivo mouse study: white blood cell, neutrophil and lymphocyte populations after 14 days of subcutaneous dosing. The settings on record: for increase in neutrophil population compared to mice in the control group / increase in the white blood cell population compared to mice in the control group: Day 14, vs control group without any treatment; for Lymphocytes / Neutrophils / White Blood Cells: Day 14 blood, s.c. over 14 days, peptide 80 μg/kg once daily, G-CSF 10 μg/kg once daily, EPO 600 IU/kg Days 1, 4, 7, 10, 14, group mean. An excerpt: In vivo Test System. Mouse was selected as the in vivo test system. Sufficient male mice of the C57BL/6 strain was obtained. The animals was obtained as weanlings of about 24-27 days of age on arrival. At randomization, their body weights were within ±20% of the overall mean for each sex. The health care and welfare of the mice were maintained in accordance with the requirement of the Animals (Scientific Procedures) Act 1986 UK. All animals were given clinical inspection for ill health on arrival. They were acclimatized for about three weeks and a veterinary inspection was performed before the start of dosing to ensure their suitability for study. The mice were assigned to treatment groups during the acclimatization period using a total randomization procedure. Group mean body weights were calculated and inspected to ensure there were no unacceptable difference between groups.
Preparation of Administered Formulation of [Leu^27]cyclo(Glu^22-Lys^26)-hPTH-(1-31)-NH2. The bulk freeze-dried peptide [Leu^27]cyclo(Glu^22-Lys^26)-hPTH-(1-31)-NH2 (SEQ ID NO: 4) was dissolved in 0.01 M acetic acid. The concentration of peptide in the solution was 1 μg/μL. The solution was re-aliquotted into dosing vials and kept frozen at approximately −70° C. The vials were then freeze-dried at the temperature lower than −20° C. and stored frozen until required. The freeze-dried aliquots for injection was reconstituted daily. The peptide was dissolved in an appropriate volume of purified water to an approximate concentration of 2-3 mg/mL. The phosphate-buffered saline (pH=7.4) was added to give the final required concentration and the pH value of the final solution is approximately 7.2. The capped vials were mixed thoroughly to ensure peptide was fully dissolved prior to use. Aseptic techniques and glass vials were used throughout dose preparation.
Preparation of Administered Formulation of G-CSF. G-CSF was provided at a concentration of 300 μg/mL in sorbito, sodium acetate and polysorbate 80 in water for injection. The stock solution was diluted accordingly with water for injection to provide the correct dosing concentration.
Preparation of Administered Formulation of EPO. EPO was provided at a concentration of 40,000 IU/mL in polysorbate 80, sodium chloride, sodium dihydrogen phosphate dihydrate, disodium phosphate dihydrate, glycine and water for injection. The stock solution was diluted accordingly with phosphate buffered solution to provide the correct dosing concentration.
In vivo Mouse Study. The peptide [Leu^27]cyclo(Glu^22-Lys^26)-hPTH-(1-31 )-NH2 (SEQ ID NO: 4), G-CSF or EPO were administered subcutaneously over 14 days. The mice were dosed as follows:
The peptide [Leu^27]cyclo(Glu^22-Lys^2 1)-hPTH-(1-3 I)-NH2 was administered to all mice in Groups 2, 3, 4 and 5 once daily for fourteen days at a dose level of 80 μg/kg.
Mice in Group 3, 4 and 5 also received EPO and/or G-CSF. EPO was administered on Days 1, 4, 7, 10 and 14 at a dose of 600 IU/kg. G-CSF was administered once daily for fourteen days at a dose level of 10 μg/kg.
Mice in 6, 7, 8 received EPO and/or G-CSF. EPO was administered on Days 1, 4, 7, 10 and 14 at a dose level of 600 IU/kg. G-CSF was administered once daily for fourteen days at a dose level of 10 μg/kg.
On Day 14, blood samples (0.5 mL EDTA nominal, 0.6 mL lithium heparin nominal) were withdrawn from all mice and were collected into lithium heparin tubes. The tubes were centrifuged and the plasma were separated and analyzed.

The test system of another experiment is healthy older volunteers. Kind of experiment: Phase I clinical trial: changes in blood cell populations from baseline to Day 7. The experiment is classed as in vivo, human. The conditions noted are these: for effect on white blood cell population, especially neutrophil population: healthy adults, compared to placebo. How it is done:
A Phase I, single-center, randomized double blind, placebo-controlled, multiple-escalating-dose study in healthy older volunteers was carried out for the peptide [Leu^27]cyclo(Glu^22-Lys^2 1)-hPTH-(1-31)-NH2 (SEQ ID NO: 4). Subjects were healthy males and females (non-reproductive potential), aged 40 to 65 years. […] Subcutaneous injections of placebo or the peptide with a dosage of 10 μg, 20 μg, 40 μg, 60 μg, or 80 μg was administered daily for 7 days. For each dosage level, 2 subjects (I male and I female) received placebo and 6 subjects (3 males and 3 females) received the peptide daily.
The number of white blood cells and the number neutrophils in a subject treated with the peptide increase as the dosage increases until it reaches the maximum at the dosage level of 60 μg. Increase in the number of white blood cells in subject treated with 60 μg of [Leu^27]cyclo(Glu^22-Lys^26)-hPTH-(1-31)-NH2 at Day 7 from the baseline level was about 8 times of that in subjects treated with placebo.

On to `CC[C@H](C)[C@H](NC(=O)[C@H](CCC(=O)O)NC(=O)[C@H](CO)NC(=O)[C@@H](NC(=O)[C@@H](N)CO)C(C)C)C(=O)N[C@@H](CCC(N)=O)C(=O)N[C@@H](CC(C)C)C(=O)N[C@@H](CCSC)C(=O)N[C@@H](Cc1c[nH]cn1)C(=O)N[C@@H](CC(N)=O)C(=O)N[C@@H](CC(C)C)C(=O)NCC(=O)N[C@@H](CCCCN)C(=O)N[C@@H](Cc1c[nH]cn1)C(=O)N[C@@H](CC(C)C)C(=O)N[C@@H](CC(N)=O)C(=O)N[C@@H](CO)C(=O)N[C@@H](CCSC)C(=O)N[C@@H](CCC(=O)O)C(=O)N[C@@H](CCCNC(=N)N)C(=O)N[C@H](C(=O)N[C@H]1CCC(=O)NCCCC[C@@H](C(=O)N[C@@H](CC(C)C)C(=O)N[C@@H](CC(C)C)C(=O)N[C@@H](CCC(N)=O)C(=O)N[C@@H](CC(=O)O)C(=O)N[C@H](C(N)=O)C(C)C)NC(=O)[C@H](CCCNC(=N)N)NC(=O)[C@H](CC(C)C)NC(=O)[C@H](Cc2c[nH]c3ccccc23)NC1=O)C(C)C` [[Leu^27]cyclo(Glu^22-Lys^26)-hPTH-(1-31)-NH2] (H-SVSEIQLMHNLGKHLNSMERVEWLRKLLQDV-NH2; lactam 22-26; N-terminus assumed), for which the “increase in lymphocyte population” value in experiment [1] (Day 14, vs control group) was about 20%. For the same molecule, in experiment [1], the “increase in neutrophil population compared to mice in the control group” value is about 75%, the “increase in the white blood cell population compared to mice in the control group” value was about 26%, the Lymphocytes was 3.7 ± 1.92 1000/cmm and the Neutrophils is reported as 0.7 ± 0.35 1000/cmm. For the same molecule, the “White Blood Cells” value in experiment [1] is recorded as 4.8 ± 2.13 1000/cmm. In the experiment on healthy older volunteers (10 μg s.c. daily for 7 days), the “Neutrophil, change in mean from baseline to Day 7” value (shortened to “Neutrophil, change in mean”) is given as 1.22 x e^9/L; the “Platelet, change in mean from baseline to Day 7” value (from here on “Platelet, change in mean”) worked out at 19.80 x e^9/L; the “Relative Neutrophil Count, change in mean from baseline to Day 7” value (shortened to “Relative Neutrophil Count, change”) is 4%; the “White Blood Cells, change in mean from baseline to Day 7” value (“White Blood Cells, change in mean” for short) amounted to 1.50 x e^9/L. For the same molecule, in the experiment with healthy older volunteers (20 μg s.c. daily for 7 days), the “Neutrophil, change in mean” value is given as 1.22 x e^9/L; the “Platelet, change in mean” value was 16.83 x e^9/L; the “Relative Neutrophil Count, change” value is on record as 3%; the “White Blood Cells, change in mean” value worked out at 1.75 x e^9/L. For the same molecule, in the experiment with healthy older volunteers (40 μg s.c. daily for 7 days), the “Neutrophil, change in mean” value is reported as 2.88 x e^9/L; the “Platelet, change in mean” value is reported as 28.50 x e^9/L; the “Relative Neutrophil Count, change” value was 12%; the “White Blood Cells, change in mean” value worked out at 3.23 x e^9/L. Moreover, in the experiment on healthy older volunteers (60 μg s.c. daily for 7 days), the “Increase in the number of white blood cells at Day 7 from baseline relative to that in subjects treated with placebo” value is “about 8 times”; the “Neutrophil, change in mean” value is 4.53 x e^9/L; the “Platelet, change in mean” value is reported as 47.83 x e^9/L; the “Relative Neutrophil Count, change” value amounted to 16%. For the same molecule, in the experiment with healthy older volunteers (60 μg s.c. daily for 7 days), the “White Blood Cells, change in mean” value is given as 4.65 x e^9/L. Besides, in the experiment on healthy older volunteers (80 μg s.c. daily for 7 days), the “Neutrophil, change in mean” value is reported as 4.40 x e^9/L; the “Platelet, change in mean” value is 39.50 x e^9/L; the “Relative Neutrophil Count, change” value is 17%; the “White Blood Cells, change in mean” value is 4.40 x e^9/L. For the same molecule, the “increase in population of neutrophils at Day 7 relative to that for subjects treated with placebo” value in the experiment with healthy older volunteers (Day 7, s.c. daily for 7 days) is recorded as “about 50 fold”. Also, the “platelet count” value with healthy older volunteers (dosage level of 60 μg and 80 μg, s.c. daily for 7 days) is on record as “Significant increase”. In addition, in the experiment on healthy older volunteers (s.c. daily for 7 days), the “effect on white blood cell population, especially neutrophil population” value is “significant stimulating effect”. Further, in the experiment on healthy older volunteers (s.c. daily for 7 days, listed as cyclic peptide of SEQ ID NO: 4), the “effect on white blood cell population, especially neutrophil population” value is recorded as “significant increase”.
For the molecule “EPO: erythropoietin, an erythropoiesis regulator”, in experiment [1], the Lymphocytes is 3.5 ± 1.12 1000/cmm, the Neutrophils is given as 0.5 ± 0.49 1000/cmm and the “White Blood Cells” value is listed as 4.3 ± 1.56 1000/cmm.

B1: G-CSF: granulocyte colony-stimulating factor, a hematopoietic growth factor (protein, UniProt P09919 31-207, looked up)
Granulocyte …: TPLGPASSLPQSFLLKCLEQVRKIQGDGAALQEKLVSECATYKLCHPEELVLLGHSLGIPWAPLSSCPSQALQLAGCLSQLHSGLFLYQGLLQALEGISPELGPTLDTLQLDVADFATTIWQQMEELGMAPALQPTQGAMPAFASAFQRRAGGVLVASHLQSFLEVSYRVLRHLAQP
With B1, in experiment [1], the “increase in neutrophil population compared to mice in the control group” value is on record as about 175%, the “increase in the white blood cell population compared to mice in the control group” value was about 20%, the Lymphocytes is listed as 3.0 ± 1.30 1000/cmm and the Neutrophils is listed as 1.1 ± 0.25 1000/cmm. Besides, in experiment [1], the “White Blood Cells” value is recorded as 4.5 ± 1.36 1000/cmm.

The values are drawn from patent US20090022684A1, “Methods for hematopoietic stimulation” (priority 2006, published 2009).
